Read-outs that look alike come from different tables or passages of the source.
Columns and labels:
[1] = system: swine class I promoter (PD1); experiment: Luciferase assay, FRTL-5 cells stably transfected with class I promoter-luciferase chimeras; assay type: cell-based; settings: for inhibition at 10 µM / inhibition at 25 µM / inhibition at 100 µM / inhibition at 1000 µM: Sus scrofa
Source text: The swine PD1 5′-flanking sequence-CAT chimeras (−1100, −203, and −127), as well as two mutants with the CRE site with −107 to −100 bp deleted (−203ΔCRE and −127ΔCRE) were used to create luciferase reporter gene constructs. The inserts were released by restriction enzyme digestion, purified from agarose gel using QIAEX (QIAGEN, Chatsworth, Calif.) and ligated in the NheI-HindIII site of the PGL-2 basic vector (PROMEGA, Madison, Wis.) using a DNA ligation kit from TAKARA biomedicals (TAKARA SHUZO Co). JM109 bacterial competent cells (PROMEGA, Madison, Wis.) were transformed with the ligation reaction and plated in agar plates for 12 h at 37° C. The colonies were picked and screened with minipreps using QIAprep spin plasmid kit (QIAGEN, Chatsworth, Calif.) and restriction enzyme digestion. The plasmids were then purified by CsCl gradient centrifugation.
(§1) The PD1-PGL-2 basic constructs and the Class II-PGL-2 basic constructs were stably transfected in the FRTL-5 cells using a Lipofectamine (GIBCO, Life Technologies, Inc.) method. Near confluent cells in 6H medium were cotransfected with 20 μg of plasmid DNA and 2 μg of a pcDNA3neo or a pPUR selection vector (CLONTECH, Palo Alto, Calif.). After 24-48 hours, 400 μg/ml of G418 (GIBCO, Life Technologies, Inc.) or 10 μM of puromycin (SIGMA) were added to the medium. After 3 weeks the antibiotic-resistant colonies were cloned by limiting dilution and screened to determine their interferon sensitivity. At least 5 cell lines of each construct were isolated, each of whose activity was increased by adding 100 U/ml γ interferon to the medium of the cells. The following data (Tables 10-13) were obtained with one clone of each of the class I or class II-luciferase chimera, but were representative of at least three other clones of each.
(§2) Luciferase activity was measured using the Luciferase assay system (PROMEGA, Madison, Wis.). Briefly, treated or untreated cells from a 100 mm culture dish were washed with PBS, scraped and collected in microfuge tubes. The pellet was dissolved in 100 μl 1× reporter lysis buffer and incubated at room temperature for 15 minutes. Cells were frozen in dry ice plus ethanol and thawed in water at room temperature. After vortexing for 10 sec, tubes were centrifuged at 12,000×g for 5 min. Twenty μl of the supernatant were mixed with 100 μl of Luciferase assay reagent and immediately placed in a luminometer. Light was measured for a period of 10 sec after a 2 sec delay.
(§3) Treatment of cells, maintained either in the presence of TSH or its absence, with 100 U/ml interferon, increased class I and class II promoter activity (Table 10). In this experiment FRTL-5 cells were grown to 80% confluency in 6H medium with TSH then treated with 100 U/ml γ-interferon, 5 mM MMI or both together. Luciferase activity was measured after 40 hours as described. Several points are notable. First, interferon increases both class I and class II promoter activity in the stable transfectants. Second, MMI inhibits both interferon-increased class I and interferon-increased class II promoter activity.

[2] = system: HLA-DRα class II promoter; experiment: Luciferase assay, FRTL-5 cells stably transfected with HLA-DRα class II promoter-luciferase chimeras; assay type: cell-based; settings: 100 U/ml γ-interferon, 6H medium, 40 hours; for inhibition at 10 µM / inhibition at 100 µM / inhibition at 1000 µM: FRTL-5, read-out: % inhibition of IFN-increased p(−137)LUC class II promoter activity
Source text: Similarly, the HLA DRα promoter constructs, p(−176)CAT and p(−137)CAT, inserted into the pCAT-Basic vector were released by restriction enzyme digestion, purified from agarose gel using QIAEX (QIAGEN, Chatsworth, Calif.), and used as templates for the construction by PCR of inserts with a 5′ flanking Mlul restriction site. The PCR products were purified by phenol-chloroform extraction, digested with MluI and XbaI, purified from agarose gels using QIAEX (QIAGEN, Chatsworth, Calif.) and ligated in the MluI-NheI site of the PGL-2 basic vector (PROMEGA, Madison, Wis.) using the DNA ligation kit from TAKARA biomedicals (TAKARA SHUZO Co.). JM1I9 bacterial competent cells (PROMEGA, Madison, Wis.) were transformed with the ligation reaction and plated in agar plates for 12 h at 37° C. The colonies were picked and screened with minipreps using QIAprep spin plasmid kit (QIAGEN, Chatsworth, Calif.) and restriction enzyme digestion. The plasmids were then purified by CsCI gradient centrifugation.
as §1, §2, §3

[3] = system: Y box protein (TSEP-1) RNA; experiment: Northern analysis of Y box protein (TSEP-1) RNA levels in FRTL-5 cells; assay type: cell-based, rat; settings: 40 hours
Source text: Whereas γ-IFN decreases Y box protein RNA levels in FRTL-5 cells, MMI can reverse this action (FIG. 16). […] The rat TSEP-1 probe was the clone 31 insert, residues 5 to 1395 of the rat TSEP-1 nucleotide sequence reported (Ohmori, M., et al., ibid (1996)); rat β-actin was kindly provided by Dr. B. Paterson (NCI, Bethesda, Md.). Radiolabeling of all probes, hybridization (0.5-1.0×10^6cpm/ml), and washing were as described (Isozaki, O., et al., ibid (1989); Saji, M., et al., ibid (1992); Ohmori, M., et al., ibid (1996)).
The ability of the compounds to reverse the γ-IFN-induced decrease in TSEP-1 RNA levels is once again 10>11>7 or 8>2>MMI>3. This mimics data in all other assays.

[4] = FRTL-5, 10 μM, 100 U/ml γ-interferon, 6H medium, 40 hours, read-out: % inhibition of IFN-increased p(−203)LUC class I promoter activity
[5] = FRTL-5, 25 μM, 6H medium, 40 hours, read-out: % inhibition of basal p(−203)LUC class I promoter activity
[6] = FRTL-5, 100 μM, 6H medium, 40 hours, read-out: % inhibition of basal p(−203)LUC class I promoter activity
[7] = FRTL-5, 100 μM, 100 U/ml γ-interferon, 6H medium, 40 hours, read-out: % inhibition of IFN-increased p(−203)LUC class I promoter activity
[8] = FRTL-5, 1.0 mM, 6H medium, 40 hours, read-out: % inhibition of basal p(−203)LUC class I promoter activity
[9] = FRTL-5, 1.0 mM, 100 U/ml γ-interferon, 6H medium, 40 hours, read-out: % inhibition of IFN-increased p(−203)LUC class I promoter activity
[10] = FRTL-5, read-out: % inhibition of IFN-increased p(−203)LUC class I promoter activity
[11] = FRTL-5, read-out: % inhibition of basal p(−203)LUC class I promoter activity

Row | SMILES | inhibition at 10 µM [1, 4] [%] | inhibition at 25 µM [1, 5] [%] | inhibition at 100 µM [1, 6] [%] | inhibition at 100 µM [1, 7] [%] | inhibition at 1000 µM [1, 8] [%] | inhibition at 1000 µM [1, 9] [%] | inhibition at 10 µM ([2]; 10 μM) [%] | inhibition at 100 µM ([2]; 100 μM) [%] | inhibition at 1000 µM ([2]; 1 mM) [%] | Y box protein (TSEP-1) RNA level, compound +γIFN ([3]; 100 μM compound + γIFN) [%] | Y box protein (TSEP-1) RNA level, compound ALONE ([3]; 100 μM compound alone) [%] | Y box protein (TSEP-1) RNA level, compound +γIFN ([3]; 1 mM compound + γIFN) [%] | Y box protein (TSEP-1) RNA level, compound ALONE ([3]; 1 mM compound alone) [%] | further results
1 | Cc1cnc(S)n1C [Compound 9, 5-Methylmethimazole] | 0 | 0 | 0 | 0 | 10 ± 10 | 15 ± 11 | – | – | – | – | – | – | – | –
2 | Cc1ncc([N+](=O)[O-])n1CCO [Compound 2, 2-Methyl-5-nitro-1-imidazole ethanol] | 0 | 0 | 0 | 10 ± 6 | 42 ± 6 | 57 ± 5 | 0 | 7 ± 6 | 65 ± 9 | 43 ± 6 | 104 ± 4 | 126 ± 9 | 106 ± 11 | Y box protein (TSEP-1) RNA level, compound +γIFN ([3]; 5 mM compound + γIFN): 163 ± 15%; Y box protein (TSEP-1) RNA level, compound ALONE ([3]; 5 mM compound alone): 112 ± 4%
3 | CSc1nccn1C [Compound 7, S-Methylmethimazole] | 0 | 0 | 10 ± 6 | 24 ± 6 | 44 ± 4 | 62 ± 9 | 0 | 30 ± 7 | 68 ± 10 | 83 ± 10 | 111 ± 16 | 133 ± 15 | 108 ± 4 | –
4 | Cn1c(-c2ccccc2)cnc1S [Compound 10, 5-Phenylmethimazole] | 45 ± 7 | 41 ± 5 | 51 ± 3 | 90 ± 17 | 52 ± 8 | 90 ± 13 | 43 ± 20 | 80 ± 7 | 92 ± 10 | 183 ± 12 | 124 ± 4 | 178 ± 10 | 122 ± 8 | –
5 | Sc1ncc[nH]1 [Compound 3, 2-Mercaptoimidazole] | – | 0 | 0 | – | 0 | – | – | – | – | 42 ± 11 | 102 ± 7 | 42 ± 5 | 94 ± 6 | Y box protein (TSEP-1) RNA level, compound +γIFN ([3]; 5 mM compound + γIFN): 47 ± 4%; Y box protein (TSEP-1) RNA level, compound ALONE ([3]; 5 mM compound alone): 100 ± 8%
6 | Cn1ccn(C)c1=S [Compound 8, N-Methylmethimazole] | – | – | – | – | – | – | – | – | – | 77 ± 6 | 119 ± 13 | 148 ± 12 | 115 ± 5 | % inhibition of IFN-increased p(−137)LUC class II promoter activity ([2]; 10 μM): 0%; % inhibition of IFN-increased p(−137)LUC class II promoter activity ([2]; 100 μM): 43 ± 5%; % inhibition of IFN-increased p(−137)LUC class II promoter activity ([2]; 1 mM): 84 ± 9%; % inhibition of IFN-increased p(−203)LUC class I promoter activity ([1]; 10 μM, 100 U/ml γ-interferon, 6H medium, 40 hours): 0%; % inhibition of basal p(−203)LUC class I promoter activity ([1]; 25 μM, 6H medium, 40 hours): 9 ± 6%; % inhibition of basal p(−203)LUC class I promoter activity ([1]; 100 μM, 6H medium, 40 hours): 44 ± 10%; % inhibition of IFN-increased p(−203)LUC class I promoter activity ([1]; 100 μM, 100 U/ml γ-interferon, 6H medium, 40 hours): 42 ± 14%; % inhibition of basal p(−203)LUC class I promoter activity ([1]; 1.0 mM, 6H medium, 40 hours): 51 ± 7%; % inhibition of IFN-increased p(−203)LUC class I promoter activity ([1]; 1.0 mM, 100 U/ml γ-interferon, 6H medium, 40 hours): 77 ± 10%
7 | Sc1nc2ccccc2[nH]1 [Compound 4, 2-Mercaptobenzimidazole] | – | – | – | – | – | – | – | – | – | – | – | – | – | inhibition at 10 µM [1, 10]: 0%; inhibition at 100 µM [1, 10]: 0%; inhibition at 1000 µM [1, 10]: 39 ± 6%; inhibition at 25 µM [1, 11]: 0%; inhibition at 100 µM [1, 11]: 0%; inhibition at 1000 µM [1, 11]: 50 ± 5%
8 | Cc1ccc2[nH]c(S)nc2c1 [Compound 6, 2-Mercapto-5-methylbenzimidazole] | – | 0 | 0 | – | 0 | 19 ± 10 | – | – | – | – | – | – | – | –
9 | O=[N+]([O-])c1ccc2[nH]c(S)nc2c1 [Compound 5, 2-Mercapto-5-nitrobenzimidazole] | 0 | 0 | 0 | 0 | 0 | 9 ± 7 | – | – | – | – | – | – | – | –

Source: patent US6365616B1, “Methimazole derivatives and tautomeric cyclic thiones to treat autoimmune diseases” (Sentron Medical, Inc., priority 1998, dated 2002)
